Consider 14 compounds from patent publication EP4729513A1, “A-KETO ACID AMIDE OR SUBSTITUTED OXALIC ACID AMIDE ESTER COMPOUND AND COMPOSITION THEREOF” (Nanjing Chempion Biotechnology Co., Ltd., priority 2023, dated 2025).

Each structure is given as a SMILES string.

By inhibition is commonly meant the drop in the measured response relative to a control, in per cent. Read a high inhibition as a response far below the control.

The assay deals with T1, human TYR (Homo sapiens, UniProt P14679).
T1 sequence (P14679 19-529): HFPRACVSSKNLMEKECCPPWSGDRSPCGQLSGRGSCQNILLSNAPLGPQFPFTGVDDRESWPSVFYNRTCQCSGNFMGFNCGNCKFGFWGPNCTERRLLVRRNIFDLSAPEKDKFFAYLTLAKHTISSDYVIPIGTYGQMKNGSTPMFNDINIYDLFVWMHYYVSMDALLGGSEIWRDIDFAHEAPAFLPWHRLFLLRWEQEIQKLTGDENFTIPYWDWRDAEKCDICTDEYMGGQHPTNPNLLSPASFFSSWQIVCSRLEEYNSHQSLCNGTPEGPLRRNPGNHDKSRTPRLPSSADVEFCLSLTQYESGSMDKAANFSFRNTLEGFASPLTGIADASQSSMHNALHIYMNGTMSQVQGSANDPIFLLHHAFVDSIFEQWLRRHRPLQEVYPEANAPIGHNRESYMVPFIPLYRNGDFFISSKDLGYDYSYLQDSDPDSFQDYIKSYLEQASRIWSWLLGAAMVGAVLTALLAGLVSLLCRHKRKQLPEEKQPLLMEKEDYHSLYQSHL
Nature of the assay: TYR inhibitory activity by modified MBTH (3-methyl-2-benzothiazolinone hydrazine) method. In kind it is biochemical. To be noted: compound concentration 2 µg/mL; levodopa oxidized by human TYR, MBTH chromogenic reagent, absorbance at 505 nm. On the procedure: A TYR inhibitory activity of a compound was assessed by a 3-methyl-2-benzothiazolinone hydrazine (MBTH) method modified with reference to the existing report (Journal of Biochemical and Biophysical Methods, 1994, 28 (3): 173-183). With MBTH as a chromogenic reagent, an inhibitory activity of a compound against human TYR was determined as follows: Levodopa was oxidized into L-dopaquinone by the human TYR. MBTH was then allowed to undergo a reaction with the L-dopaquinone to produce a colored product. The reaction was terminated, and the specific absorbance of the colored product at 505 nm was measured.
For `O=C(Nc1nc(-c2ccc(O)cc2O)cs1)C(=O)N1CCSCC1` [N-(4-(2,4-dihydroxyphenyl)thiazol-2-yl)-2-thiomorpholin-2-oxoacetamide], the inhibition at 2 µg/mL was 76.5%.

As to `O=C(Nc1nc(-c2ccc(O)cc2O)cs1)C(=O)N1CCCC1` [N-(4-(2,4-Dihydroxyphenyl)thiazol-2-yl)-2-oxo-2-(pyrrolidin-1-yl)oxalamide], the inhibition at 2 µg/mL was 93.5%. In the case of `CCN(CC)C(=O)C(=O)Nc1nc(-c2ccc(O)cc2O)cs1` [N-(4-(2,4-dihydroxyphenyl)thiazol-2-yl)-N',N'-diethyloxalamide], the inhibition at 2 µg/mL is 89.2%. Take `CC(C)NC(=O)C(=O)Nc1nc(-c2ccc(O)cc2O)cs1` [N-(4-(2,4-dihydroxyphenyl)thiazol-2-yl)-N'-isopropyloxalamide]: the inhibition at 2 µg/mL amounted to 96.7%.

Turning to `O=C(Nc1nc(-c2ccc(O)cc2O)cs1)C(=O)OC1CC1` [Cyclopropyl 2-((4-(2,4-dihydroxyphenyl)thiazol-2-yl)amino)-2-oxoacetate], the inhibition at 2 µg/mL was determined as 85.8%. Turning to `CC(=O)C(=O)Nc1nc(-c2ccc(O)cc2O)cs1` [N-(4-(2,4-dihydroxyphenyl)thiazol-2-yl)-2-oxopropanamide], the inhibition at 2 µg/mL was found to be 92.6%. `CCOC(=O)C(=O)Nc1nc(-c2ccc(O)cc2O)cs1` [Ethyl 2-((4-(2,4-dihydroxyphenyl)thiazol-2-yl)amino)-2-oxoacetate] came in with an inhibition at 2 µg/mL of 89.6%. On to `CC(C)C(=O)C(=O)Nc1nc(-c2ccc(O)cc2O)cs1` [N-(4-(2,4-dihydroxyphenyl)thiazol-2-yl)-3-methyl-2-oxobutanamide], for which the inhibition at 2 µg/mL worked out at 78.5%.

The compound `O=C(Nc1nc(-c2ccc(O)cc2O)cs1)C(=O)C1CCCCC1` [2-cyclohexyl-N-(4-(2,4-dihydroxyphenyl)thiazol-2-yl)-2-oxoacetamide] registered an inhibition at 2 µg/mL of 65%. `CN(C)C(=O)C(=O)Nc1nc(-c2ccc(O)cc2O)cs1` [N-(4-(2,4-dihydroxyphenyl)thiazol-2-yl)-N',N'-dimethyloxalamide]: the inhibition at 2 µg/mL turned out to be 90.7%. Regarding `CCC(=O)C(=O)Nc1nc(-c2ccc(O)cc2O)cs1` [N-(4-(2,4-dihydroxyphenyl)thiazol-2-yl)-2-oxobutanamide], the inhibition at 2 µg/mL came out at 90%. On to `COC(=O)C(=O)Nc1nc(-c2ccc(O)cc2O)cs1` [Methyl 2-((4-(2,4-dihydroxyphenyl)thiazol-2-yl)amino)-2-oxoacetate], for which the inhibition at 2 µg/mL came out at 88.1%.

Compound `O=C(Nc1nc(-c2ccc(O)cc2O)cs1)C(=O)C1CC1` [2-cyclopropyl-N-(4-(2,4-dihydroxyphenyl)thiazol-2-yl)-2-oxoacetamide] had an inhibition at 2 µg/mL of 75.3%. Turning to `O=C(Nc1nc(-c2ccc(O)cc2O)cs1)C(=O)N1CCOCC1` [N-(4-(2,4-dihydroxyphenyl)thiazol-2-yl)-2-morpholino-2-oxoacetamide], the inhibition at 2 µg/mL came to 86.1%.
